Assays:
[1] = target: T1, 5-hydroxytryptamine receptor 1A (Rattus norvegicus, UniProt P19327); test: Displacement of [3H]8-OH-DPAT from 5-HT1A receptor in rat cerebral cortex homogenates after 60 mins by liquid scintillation counting; format: tissue-based
T1 sequence (P19327 whole entry): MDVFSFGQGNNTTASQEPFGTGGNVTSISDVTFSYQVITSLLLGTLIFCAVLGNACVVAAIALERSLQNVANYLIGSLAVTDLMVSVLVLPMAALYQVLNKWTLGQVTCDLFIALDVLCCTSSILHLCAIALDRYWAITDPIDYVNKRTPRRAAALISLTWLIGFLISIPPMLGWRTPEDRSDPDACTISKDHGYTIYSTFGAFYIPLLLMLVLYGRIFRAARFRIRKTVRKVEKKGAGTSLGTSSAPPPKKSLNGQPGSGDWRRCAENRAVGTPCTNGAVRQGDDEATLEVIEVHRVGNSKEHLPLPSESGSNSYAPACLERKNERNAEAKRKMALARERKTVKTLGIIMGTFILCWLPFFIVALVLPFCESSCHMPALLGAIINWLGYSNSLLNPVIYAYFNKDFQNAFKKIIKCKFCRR

[2] = target: 5-hydroxytryptamine receptor 2A (Rattus norvegicus, UniProt P14842); test: Displacement of [3H]ketanserine from 5-HT2A receptor in rat cerebral cortex homogenates after 60 mins by liquid scintillation counting; format: tissue-based
D(2) dopamine receptor = D(2) dopamine receptor (Rattus norvegicus, UniProt P61169); test: Displacement of [3H]spiperone from dopaminergic D2 receptor in rat striatum homogenates after 60 mins by liquid scintillation counting
Mus musculus [3] = test: Antipsychotic activity in po dosed Chinese Kun Ming mouse assessed as inhibition of apomorphine-induced climbing administered 30 mins before apomorphine challenge measured up to 30 mins; format: functional
Mus musculus [4] = test: Toxicity in po dosed Chinese Kun Ming mouse assessed as induction of catalepsy by measuring immobility score of 30 seconds administered 30 mins before first assessment; format: organism-based; conditions: in vivo, 0.5 h
Mus musculus [5] = test: Antipsychotic activity in po dosed Chinese Kun Ming mouse assessed as inhibition of DOI-induced head twitch administered 60 mins before DOI challenge measured up to 15 mins; format: functional
[6] = target: Voltage-gated inwardly rectifying potassium channel KCNH2 (Homo sapiens, UniProt Q12809); test: Inhibition of human ERG expressed in HEK293 cells by whole-cell patch clamp method; format: cell-based
[7] = Acute toxicity in Sprague-Dawley rat; format: organism-based; conditions: in vivo
Mus musculus [8] = test: Neurotoxicity in Chinese Kun Ming mouse assessed as locomotor activity by measuring total distance traveled at 0.3 mg/kg, po administered 1 hr before test measured for 10 mins (reference value: 13415.6 +/- 9555.8 millimeter); format: toxicity, organism-based; conditions: in vivo
Mus musculus [9] = test: Neurotoxicity in Chinese Kun Ming mouse assessed as locomotor activity by measuring total distance traveled at 0.1 mg/kg, po administered 1 hr before test measured for 10 mins (reference value: 13415.6 +/- 9555.8 millimeter); format: toxicity, organism-based; conditions: in vivo
Mus musculus [10] = test: Neurotoxicity in Chinese Kun Ming mouse assessed as locomotor activity by measuring total distance traveled at 1 mg/kg, po administered 1 hr before test measured for 10 mins (reference value: 13415.6 +/- 9555.8 millimeter); format: toxicity, organism-based; conditions: in vivo
Mus musculus [11] = test: Neurotoxicity in Chinese Kun Ming mouse assessed as locomotor activity by measuring total distance traveled at 1 mg/kg, po administered 1 hr before test measured for 10 mins (reference value: 13881.4 +/- 8595.8 millimeter); format: toxicity, organism-based; conditions: in vivo
Mus musculus [12] = test: Neurotoxicity in Chinese Kun Ming mouse assessed as locomotor activity by measuring total distance traveled at 10 mg/kg, po administered 1 hr before test measured for 10 mins (reference value: 13881.4 +/- 8595.8 millimeter); format: toxicity, organism-based; conditions: in vivo
Mus musculus [13] = test: Neurotoxicity in Chinese Kun Ming mouse assessed as locomotor activity by measuring total distance traveled at 3 mg/kg, po administered 1 hr before test measured for 10 mins (reference value: 13881.4 +/- 8595.8 millimeter); format: toxicity, organism-based; conditions: in vivo

D(2) dopamine receptor, sequence (P61169 whole entry): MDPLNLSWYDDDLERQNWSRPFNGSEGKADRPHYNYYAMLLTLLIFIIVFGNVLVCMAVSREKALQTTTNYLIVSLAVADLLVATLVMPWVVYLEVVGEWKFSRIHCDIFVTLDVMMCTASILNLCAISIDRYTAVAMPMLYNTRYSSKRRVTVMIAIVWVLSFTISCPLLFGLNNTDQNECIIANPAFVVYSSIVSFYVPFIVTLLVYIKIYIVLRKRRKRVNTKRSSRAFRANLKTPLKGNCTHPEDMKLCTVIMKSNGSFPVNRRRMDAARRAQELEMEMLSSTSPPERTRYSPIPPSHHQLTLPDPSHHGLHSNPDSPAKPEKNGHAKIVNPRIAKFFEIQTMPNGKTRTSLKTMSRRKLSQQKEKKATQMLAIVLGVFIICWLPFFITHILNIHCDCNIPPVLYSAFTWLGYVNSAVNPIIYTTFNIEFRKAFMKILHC
5-hydroxytryptamine receptor 2A, sequence (P14842 whole entry): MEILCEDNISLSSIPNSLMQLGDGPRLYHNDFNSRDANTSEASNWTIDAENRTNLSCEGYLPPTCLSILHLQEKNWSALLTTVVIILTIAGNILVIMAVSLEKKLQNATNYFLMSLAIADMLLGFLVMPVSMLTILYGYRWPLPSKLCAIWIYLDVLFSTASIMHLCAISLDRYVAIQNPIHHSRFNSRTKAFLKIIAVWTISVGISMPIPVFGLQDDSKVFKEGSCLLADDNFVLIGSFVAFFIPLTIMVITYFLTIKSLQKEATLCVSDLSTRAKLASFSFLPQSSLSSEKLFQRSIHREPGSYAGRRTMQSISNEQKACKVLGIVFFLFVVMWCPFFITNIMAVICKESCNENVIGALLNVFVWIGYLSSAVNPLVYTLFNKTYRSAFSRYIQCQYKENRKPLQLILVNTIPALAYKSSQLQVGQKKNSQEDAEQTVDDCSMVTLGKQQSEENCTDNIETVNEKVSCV
Voltage-gated inwardly rectifying potassium channel KCNH2, sequence (Q12809 whole entry): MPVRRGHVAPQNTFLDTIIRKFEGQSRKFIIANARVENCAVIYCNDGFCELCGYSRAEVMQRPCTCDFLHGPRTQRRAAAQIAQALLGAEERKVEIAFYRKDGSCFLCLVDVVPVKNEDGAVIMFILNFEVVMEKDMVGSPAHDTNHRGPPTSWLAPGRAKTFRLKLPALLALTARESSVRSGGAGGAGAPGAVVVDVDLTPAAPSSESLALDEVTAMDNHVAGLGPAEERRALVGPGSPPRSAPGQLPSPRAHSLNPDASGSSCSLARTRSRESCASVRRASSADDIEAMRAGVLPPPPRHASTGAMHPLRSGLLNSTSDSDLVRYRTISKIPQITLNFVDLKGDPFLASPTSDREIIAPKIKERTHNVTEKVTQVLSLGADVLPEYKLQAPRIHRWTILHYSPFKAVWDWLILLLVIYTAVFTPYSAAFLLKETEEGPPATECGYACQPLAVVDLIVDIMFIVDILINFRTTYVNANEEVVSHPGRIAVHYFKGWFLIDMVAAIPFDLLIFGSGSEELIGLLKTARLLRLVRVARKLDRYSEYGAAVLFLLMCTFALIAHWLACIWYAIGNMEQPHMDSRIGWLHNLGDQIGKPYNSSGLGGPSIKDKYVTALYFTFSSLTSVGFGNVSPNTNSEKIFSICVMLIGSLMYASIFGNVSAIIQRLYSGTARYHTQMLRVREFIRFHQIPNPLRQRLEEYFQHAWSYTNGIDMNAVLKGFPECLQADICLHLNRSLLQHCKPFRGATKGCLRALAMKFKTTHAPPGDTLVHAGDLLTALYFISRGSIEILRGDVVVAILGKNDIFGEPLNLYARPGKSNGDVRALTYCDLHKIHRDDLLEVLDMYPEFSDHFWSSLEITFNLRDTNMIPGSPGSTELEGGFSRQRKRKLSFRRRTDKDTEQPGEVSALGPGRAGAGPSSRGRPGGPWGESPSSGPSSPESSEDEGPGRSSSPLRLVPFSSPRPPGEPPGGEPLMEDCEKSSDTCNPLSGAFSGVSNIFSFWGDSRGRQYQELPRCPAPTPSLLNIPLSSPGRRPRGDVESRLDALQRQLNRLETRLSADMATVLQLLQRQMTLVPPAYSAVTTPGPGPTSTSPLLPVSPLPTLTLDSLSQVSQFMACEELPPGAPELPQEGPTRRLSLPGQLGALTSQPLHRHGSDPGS

Compound	Ki [1] [nM]	Ki [2] [nM]	Ki (D(2) dopamine receptor) [nM]	further results
Cc1cccc(N2CCN(CCCOc3ccc(-c4nc5ccccc5o4)cc3)CC2)c1C	4690	2140	> 10000	
c1ccc2oc(-c3ccc(OCCCN4CCC(c5nc6ccccc6s5)CC4)cc3)nc2c1	146	281	> 10000	
c1ccc2oc(-c3ccc(OCCCN4CCN(c5nsc6ccccc56)CC4)cc3)nc2c1	970	16.9	879	
Cc1cc(-c2nc3ccccc3o2)ccc1OCCCN1CCC(c2noc3cc(F)ccc23)CC1	2140	41.1	1590	
COc1ccccc1N1CCN(CCCOc2ccc(-c3nc4ccccc4o3)cc2)CC1	46.8	29.3	467	
FC(F)(F)c1cccc(N2CCN(CCCOc3ccc(-c4nc5ccccc5o4)cc3)CC2)c1	> 10000	4480	> 10000	
c1ccc(N2CCN(CCCOc3ccc(-c4nc5ccccc5o4)cc3)CC2)nc1	1990	2340	> 10000	
Fc1ccc2c(C3CCN(CCCCOc4ccc(-c5nc6ccccc6o5)cc4)CC3)noc2c1	996	729	2200	
Cc1nc2n(c(=O)c1CCN1CCC(c3noc4cc(F)ccc34)CC1)CCCC2 [RISPERIDONE]				ED50 (Mus musculus [3]): 0.034 mg/kg; ED50 (Mus musculus [4]): 1.3 mg/kg; ED50 (Mus musculus [5]): 0.045 mg/kg
Fc1ccc2c(C3CCN(CCCOc4ccc(-c5nc6ccccc6s5)cc4)CC3)noc2c1	1760	1270	> 10000	
Fc1ccc2c(C3CCN(CCCOc4ccc(CCc5nc6ccccc6o5)cc4)CC3)noc2c1	31.1	38.1	53.1	IC50 [6]: 630 nM; LD50 [7]: 398 mg/kg
O=C(c1ccc(F)cc1F)C1CCN(CCCOc2ccc(-c3nc4ccccc4o3)cc2)CC1	114	199	408	LD50 [7]: 369 mg/kg
c1ccc2c(c1)OCC(CN1CCN(CCCOc3ccc(-c4nc5ccccc5o4)cc3)CC1)O2 (stereo unspecified)	> 10000	1420	> 10000	
c1ccc(N2CCN(CCCOc3ccc(-c4nc5ccccc5o4)cc3)CC2)cc1	> 10000	4680	> 10000	
COc1ccccc1N1CCN(CCCOc2ccc(-c3nc4ccccc4[nH]3)cc2)CC1	258	109	16.3	
O=C(CCCN1CCC(O)(c2ccc(Cl)cc2)CC1)c1ccc(F)cc1 [HALOPERIDOL]				Activity (Mus musculus [8]): 3580.6 mm; Activity (Mus musculus [9]): 8980.9 mm; Activity (Mus musculus [10]): 744.5 mm
Clc1cccc(N2CCN(CCCOc3ccc(-c4nc5ccccc5o4)cc3)CC2)c1Cl	> 10000	2890	> 10000	
COc1cc(OCCCN2CCC(c3noc4cc(F)ccc34)CC2)ccc1-c1nc2ccccc2o1	1560	72.2	1190	
Fc1ccc2c(C3CCN(CCCOc4ccc(-c5nc6cc(Cl)ccc6o5)cc4)CC3)noc2c1	> 10000	135	660	
Fc1ccc2c(C3CCN(CCCOc4ccc(-c5nc6ccccc6o5)c(F)c4)CC3)noc2c1	232	23.7	143	
Fc1ccc2c(C3CCN(CCCOc4cccc(-c5nc6ccccc6o5)c4)CC3)noc2c1	> 10000	> 10000	> 10000	
CC(c1ccc(OCCCN2CCC(c3noc4cc(F)ccc34)CC2)cc1)c1nc2ccccc2o1 (stereo unspecified)	89.6	30.5	60.3	IC50 [6]: 1010 nM; LD50 [7]: 614 mg/kg
O=C1CN=C(c2ccccc2Cl)c2cc([N+](=O)[O-])ccc2N1 [CLONAZEPAM]				Activity (Mus musculus [11]): 13188.4 mm; Activity (Mus musculus [12]): 655.7 mm; Activity (Mus musculus [13]): 4784.1 mm
c1ccc2oc(-c3ccc(OCCCN4CCC(c5nc6ccccc6o5)CC4)cc3)nc2c1	568	243	> 10000	
Cc1ccc2oc(-c3ccc(OCCCN4CCC(c5noc6cc(F)ccc56)CC4)cc3)nc2c1	76.3	> 10000	> 10000	
CN1CCN(C2=Nc3cc(Cl)ccc3Nc3ccccc32)CC1 [CLOZAPINE]				ED50 (Mus musculus [3]): 3.51 mg/kg; ED50 (Mus musculus [4]): 50.5 mg/kg; ED50 (Mus musculus [5]): 4.92 mg/kg
c1cnc(N2CCN(CCCOc3ccc(-c4nc5ccccc5o4)cc3)CC2)nc1	56.2	38.5	198	

Source: ChEMBL document CHEMBL3632483, “Synthesis and pharmacological evaluation of piperidine (piperazine)-substituted benzoxazole derivatives as multi-target antipsychotics” (Bioorg Med Chem Lett, 2015)
